# According to ChEMBL document CHEMBL5465560, “Selectivity Literature for EUbOPEN Chemogenomic Library” (2024):
# Columns and labels:
# Aurora kinase B = Aurora kinase B (Homo sapiens, UniProt Q96GD4); experiment: Selectivity interaction (KinomeScan (DiscoverX)) EUB0000655a AURKB; details: at 10 µM
# [1] = target: Mitogen-activated protein kinase kinase kinase kinase 1 (Homo sapiens) (UniProt Q92918); experiment: Selectivity interaction (KinomeScan (DiscoverX)) EUB0001079a MAP4K1; details: at 1 µM
# Sequence of Mitogen-activated protein kinase kinase kinase kinase 1 (Homo sapiens) (Q92918 whole entry, looked up): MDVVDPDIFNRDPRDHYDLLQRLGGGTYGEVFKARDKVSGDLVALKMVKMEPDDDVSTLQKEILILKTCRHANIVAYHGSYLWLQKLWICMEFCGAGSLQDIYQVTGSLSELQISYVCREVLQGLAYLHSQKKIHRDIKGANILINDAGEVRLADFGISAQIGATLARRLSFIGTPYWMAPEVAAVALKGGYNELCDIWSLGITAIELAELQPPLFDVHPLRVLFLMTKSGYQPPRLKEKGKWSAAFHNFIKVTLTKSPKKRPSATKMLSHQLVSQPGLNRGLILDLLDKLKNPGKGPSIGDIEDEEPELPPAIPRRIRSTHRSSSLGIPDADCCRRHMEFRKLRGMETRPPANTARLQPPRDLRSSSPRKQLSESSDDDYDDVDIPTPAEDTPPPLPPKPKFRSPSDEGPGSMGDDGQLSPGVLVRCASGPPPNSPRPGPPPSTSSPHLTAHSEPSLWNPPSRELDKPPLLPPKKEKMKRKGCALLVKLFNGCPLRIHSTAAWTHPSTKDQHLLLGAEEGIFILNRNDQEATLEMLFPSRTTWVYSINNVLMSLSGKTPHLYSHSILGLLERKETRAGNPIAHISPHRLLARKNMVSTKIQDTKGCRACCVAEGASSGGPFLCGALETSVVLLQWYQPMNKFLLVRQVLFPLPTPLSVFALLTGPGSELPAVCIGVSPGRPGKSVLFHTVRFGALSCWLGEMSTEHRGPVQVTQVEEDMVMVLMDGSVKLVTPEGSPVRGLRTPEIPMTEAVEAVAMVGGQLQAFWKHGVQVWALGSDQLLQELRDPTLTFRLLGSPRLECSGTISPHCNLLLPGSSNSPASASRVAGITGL
# [2] = target: Tyrosine-protein kinase BTK (Homo sapiens, UniProt Q06187); experiment: Selectivity interaction (KinomeScan (DiscoverX)) EUB0001079a BTK; details: at 1 µM
# Sequence of Tyrosine-protein kinase BTK (Q06187 whole entry): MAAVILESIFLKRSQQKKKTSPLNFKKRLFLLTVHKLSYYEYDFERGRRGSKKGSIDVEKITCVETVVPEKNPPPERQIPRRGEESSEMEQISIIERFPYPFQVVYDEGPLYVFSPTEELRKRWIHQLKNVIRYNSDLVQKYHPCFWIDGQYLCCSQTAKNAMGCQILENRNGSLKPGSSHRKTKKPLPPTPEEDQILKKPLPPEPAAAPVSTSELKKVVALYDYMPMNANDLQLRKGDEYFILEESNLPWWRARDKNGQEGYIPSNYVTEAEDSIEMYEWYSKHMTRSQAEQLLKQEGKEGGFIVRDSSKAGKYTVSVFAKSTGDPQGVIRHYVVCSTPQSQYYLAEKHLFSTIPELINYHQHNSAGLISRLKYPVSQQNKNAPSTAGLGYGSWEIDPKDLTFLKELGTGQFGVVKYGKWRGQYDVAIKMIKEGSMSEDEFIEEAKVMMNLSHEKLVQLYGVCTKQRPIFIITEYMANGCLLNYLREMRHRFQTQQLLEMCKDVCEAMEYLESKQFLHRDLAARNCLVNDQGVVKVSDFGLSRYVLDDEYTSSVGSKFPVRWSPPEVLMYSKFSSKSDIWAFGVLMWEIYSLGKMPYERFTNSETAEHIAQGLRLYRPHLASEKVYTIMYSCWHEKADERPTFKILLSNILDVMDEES
# [3] = target: BDNF/NT-3 growth factors receptor (Homo sapiens) (UniProt Q16620); experiment: Selectivity interaction (Millipore kinase profiler) EUB0000124b NTRK2; details: at 10 µM
# Sequence of BDNF/NT-3 growth factors receptor (Homo sapiens) (Q16620 32-822 limits assumed): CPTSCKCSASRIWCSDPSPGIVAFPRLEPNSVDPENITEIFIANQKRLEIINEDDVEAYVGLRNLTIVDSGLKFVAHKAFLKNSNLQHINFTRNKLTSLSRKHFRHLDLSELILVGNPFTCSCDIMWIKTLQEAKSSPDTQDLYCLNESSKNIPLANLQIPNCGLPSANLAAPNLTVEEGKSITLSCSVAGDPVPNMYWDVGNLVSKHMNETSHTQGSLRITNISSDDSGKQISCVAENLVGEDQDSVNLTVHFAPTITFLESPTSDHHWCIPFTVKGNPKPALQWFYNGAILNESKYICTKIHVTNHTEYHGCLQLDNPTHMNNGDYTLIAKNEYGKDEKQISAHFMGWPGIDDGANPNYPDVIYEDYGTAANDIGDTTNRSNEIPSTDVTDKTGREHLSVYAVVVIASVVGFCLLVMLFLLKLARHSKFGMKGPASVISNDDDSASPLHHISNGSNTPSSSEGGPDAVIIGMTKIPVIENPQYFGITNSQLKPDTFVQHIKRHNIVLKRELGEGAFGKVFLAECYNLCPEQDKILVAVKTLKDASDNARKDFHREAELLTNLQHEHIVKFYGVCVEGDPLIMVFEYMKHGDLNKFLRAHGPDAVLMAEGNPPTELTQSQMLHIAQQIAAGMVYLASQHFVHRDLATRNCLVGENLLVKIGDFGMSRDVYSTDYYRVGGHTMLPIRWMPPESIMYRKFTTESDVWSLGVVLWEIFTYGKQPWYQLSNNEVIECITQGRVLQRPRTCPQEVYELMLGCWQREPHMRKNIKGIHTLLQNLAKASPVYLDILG
# [4] = target: Tyrosine-protein kinase ABL1 (Homo sapiens, UniProt P00519); experiment: Selectivity interaction (ActivX KiNativ screen (ex vivo kinase selectivity in human PBMCs)) EUB0001619a ABL1; format: cell-based; details: PBMC, at 1 µM
# [5] = target: T1, Phosphatidylinositol 5-phosphate 4-kinase type-2 beta (Homo sapiens) (UniProt P78356); details: at 10 µM
# T1 sequence (whole entry): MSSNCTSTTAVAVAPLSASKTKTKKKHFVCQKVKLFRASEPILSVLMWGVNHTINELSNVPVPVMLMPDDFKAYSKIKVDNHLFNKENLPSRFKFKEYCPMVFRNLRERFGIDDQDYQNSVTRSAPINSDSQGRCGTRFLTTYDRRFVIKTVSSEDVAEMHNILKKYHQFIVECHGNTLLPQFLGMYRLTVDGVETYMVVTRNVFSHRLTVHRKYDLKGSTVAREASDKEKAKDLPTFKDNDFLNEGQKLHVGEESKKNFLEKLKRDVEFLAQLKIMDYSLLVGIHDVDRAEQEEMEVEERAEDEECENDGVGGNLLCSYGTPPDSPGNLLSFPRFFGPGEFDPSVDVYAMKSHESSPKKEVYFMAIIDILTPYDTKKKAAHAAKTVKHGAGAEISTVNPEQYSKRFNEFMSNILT
# [6] = target: T2, Serine/threonine-protein kinase ULK1 (Homo sapiens) (UniProt O75385); experiment: Selectivity interaction (ActivX KiNativ screen (kinase selectivity in THP-1 cell lysates)) EUB0000639a ULK1; format: subcellular; details: lysate
# T2 sequence (whole entry): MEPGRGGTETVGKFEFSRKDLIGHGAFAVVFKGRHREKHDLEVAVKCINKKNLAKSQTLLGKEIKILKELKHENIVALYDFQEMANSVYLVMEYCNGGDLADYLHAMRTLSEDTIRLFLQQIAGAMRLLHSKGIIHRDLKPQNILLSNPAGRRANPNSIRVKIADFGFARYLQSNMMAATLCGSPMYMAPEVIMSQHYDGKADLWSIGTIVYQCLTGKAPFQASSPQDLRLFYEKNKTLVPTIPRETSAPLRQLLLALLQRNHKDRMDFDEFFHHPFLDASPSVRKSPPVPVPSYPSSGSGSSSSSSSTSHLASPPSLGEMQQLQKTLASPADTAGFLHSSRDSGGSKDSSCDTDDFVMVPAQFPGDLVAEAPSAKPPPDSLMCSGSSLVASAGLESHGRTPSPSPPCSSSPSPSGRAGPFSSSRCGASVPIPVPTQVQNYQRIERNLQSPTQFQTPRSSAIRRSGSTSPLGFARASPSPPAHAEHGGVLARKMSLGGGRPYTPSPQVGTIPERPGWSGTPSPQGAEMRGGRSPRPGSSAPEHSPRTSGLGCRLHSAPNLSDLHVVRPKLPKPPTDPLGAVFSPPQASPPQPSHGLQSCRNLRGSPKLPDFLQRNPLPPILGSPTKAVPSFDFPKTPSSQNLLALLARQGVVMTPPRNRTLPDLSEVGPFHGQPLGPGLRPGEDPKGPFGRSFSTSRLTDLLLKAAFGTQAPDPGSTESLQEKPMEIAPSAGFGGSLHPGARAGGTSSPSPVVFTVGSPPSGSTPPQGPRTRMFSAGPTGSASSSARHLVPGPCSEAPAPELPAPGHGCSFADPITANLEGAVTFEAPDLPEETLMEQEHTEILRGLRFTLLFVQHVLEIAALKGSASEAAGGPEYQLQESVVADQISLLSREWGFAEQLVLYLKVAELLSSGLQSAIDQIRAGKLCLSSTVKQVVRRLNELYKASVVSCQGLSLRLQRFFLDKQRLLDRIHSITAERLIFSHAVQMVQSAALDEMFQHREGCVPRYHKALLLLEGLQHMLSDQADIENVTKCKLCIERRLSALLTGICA
# [7] = target: Phosphatidylinositol 4,5-bisphosphate 3-kinase catalytic subunit beta isoform (Homo sapiens) (UniProt P42338); experiment: Selectivity interaction (ActivX KiNativ screen (kinase selectivity in THP-1 cell lysates)) EUB0000639a PIK3CB; format: subcellular; details: lysate
# Sequence of Phosphatidylinositol 4,5-bisphosphate 3-kinase catalytic subunit beta isoform (Homo sapiens) (P42338 whole entry, looked up, canonical isoform): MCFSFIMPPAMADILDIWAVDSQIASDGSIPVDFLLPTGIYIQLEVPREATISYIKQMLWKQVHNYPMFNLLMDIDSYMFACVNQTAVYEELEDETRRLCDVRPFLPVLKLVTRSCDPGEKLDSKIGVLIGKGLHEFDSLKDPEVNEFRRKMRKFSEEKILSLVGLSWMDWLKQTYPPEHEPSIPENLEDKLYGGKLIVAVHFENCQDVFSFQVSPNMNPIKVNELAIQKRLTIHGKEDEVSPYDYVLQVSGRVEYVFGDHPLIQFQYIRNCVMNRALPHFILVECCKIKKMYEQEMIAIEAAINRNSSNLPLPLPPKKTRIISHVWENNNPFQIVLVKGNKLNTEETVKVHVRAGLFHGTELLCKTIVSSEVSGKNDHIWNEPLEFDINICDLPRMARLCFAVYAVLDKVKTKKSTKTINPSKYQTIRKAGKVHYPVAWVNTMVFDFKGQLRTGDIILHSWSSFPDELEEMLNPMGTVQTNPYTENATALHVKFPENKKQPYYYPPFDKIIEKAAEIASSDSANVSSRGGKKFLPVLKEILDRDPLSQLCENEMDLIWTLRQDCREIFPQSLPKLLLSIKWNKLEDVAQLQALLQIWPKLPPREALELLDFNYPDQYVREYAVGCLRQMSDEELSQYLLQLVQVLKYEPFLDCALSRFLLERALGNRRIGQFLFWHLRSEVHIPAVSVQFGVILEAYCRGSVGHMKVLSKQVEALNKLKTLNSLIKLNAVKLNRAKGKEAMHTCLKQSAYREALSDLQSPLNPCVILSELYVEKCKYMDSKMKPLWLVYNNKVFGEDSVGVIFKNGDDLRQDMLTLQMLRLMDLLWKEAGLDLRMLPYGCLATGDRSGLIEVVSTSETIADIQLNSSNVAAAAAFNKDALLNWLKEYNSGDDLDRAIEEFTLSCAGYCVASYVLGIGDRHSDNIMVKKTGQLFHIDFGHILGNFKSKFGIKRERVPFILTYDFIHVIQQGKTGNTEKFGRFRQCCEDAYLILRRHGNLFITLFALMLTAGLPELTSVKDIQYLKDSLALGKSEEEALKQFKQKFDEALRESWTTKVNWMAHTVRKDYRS
# [8] = target: Transcription initiation factor TFIID subunit 1-like (Homo sapiens) (UniProt Q8IZX4); experiment: Selectivity interaction (Bromodomain panel (DSF asssay)) EUB0000270b TAF1L
# [9] = target: Bromodomain adjacent to zinc finger domain protein 2B (Homo sapiens) (UniProt Q9UIF8); experiment: Selectivity interaction (Bromodomain panel (DSF asssay)) EUB0000270b BAZ2B
# [10] = target: Serine/threonine-protein kinase MRCK beta (Homo sapiens) (UniProt Q9Y5S2); experiment: Selectivity interaction (KinomeScan (DiscoverX)) EUB0000229b CDC42BPB; details: at 10 µM
# [11] = target: T3, Serine/threonine-protein kinase Sgk1 (Homo sapiens) (UniProt O00141); experiment: Selectivity interaction (KinomeScan (DiscoverX)) EUB0000666a SGK1; details: at 10 µM
# T3 sequence (whole entry): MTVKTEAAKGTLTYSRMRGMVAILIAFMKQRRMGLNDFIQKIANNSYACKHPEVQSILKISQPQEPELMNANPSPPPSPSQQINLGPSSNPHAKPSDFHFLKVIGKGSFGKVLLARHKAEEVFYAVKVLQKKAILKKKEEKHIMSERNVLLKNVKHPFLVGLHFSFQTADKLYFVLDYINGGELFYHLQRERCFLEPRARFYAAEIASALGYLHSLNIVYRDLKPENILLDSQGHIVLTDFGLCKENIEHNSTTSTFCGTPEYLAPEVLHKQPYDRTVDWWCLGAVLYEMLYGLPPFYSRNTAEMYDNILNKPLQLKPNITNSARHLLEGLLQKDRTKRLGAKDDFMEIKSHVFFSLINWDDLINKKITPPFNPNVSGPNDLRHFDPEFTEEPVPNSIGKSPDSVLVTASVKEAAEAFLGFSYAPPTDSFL
# [12] = target: Ephrin type-A receptor 7 (Homo sapiens) (UniProt Q15375); experiment: Selectivity interaction (KinomeScan (DiscoverX)) EUB0000666a EPHA7; details: at 10 µM
# Sequence of Ephrin type-A receptor 7 (Homo sapiens) (Q15375 28-998 limits assumed): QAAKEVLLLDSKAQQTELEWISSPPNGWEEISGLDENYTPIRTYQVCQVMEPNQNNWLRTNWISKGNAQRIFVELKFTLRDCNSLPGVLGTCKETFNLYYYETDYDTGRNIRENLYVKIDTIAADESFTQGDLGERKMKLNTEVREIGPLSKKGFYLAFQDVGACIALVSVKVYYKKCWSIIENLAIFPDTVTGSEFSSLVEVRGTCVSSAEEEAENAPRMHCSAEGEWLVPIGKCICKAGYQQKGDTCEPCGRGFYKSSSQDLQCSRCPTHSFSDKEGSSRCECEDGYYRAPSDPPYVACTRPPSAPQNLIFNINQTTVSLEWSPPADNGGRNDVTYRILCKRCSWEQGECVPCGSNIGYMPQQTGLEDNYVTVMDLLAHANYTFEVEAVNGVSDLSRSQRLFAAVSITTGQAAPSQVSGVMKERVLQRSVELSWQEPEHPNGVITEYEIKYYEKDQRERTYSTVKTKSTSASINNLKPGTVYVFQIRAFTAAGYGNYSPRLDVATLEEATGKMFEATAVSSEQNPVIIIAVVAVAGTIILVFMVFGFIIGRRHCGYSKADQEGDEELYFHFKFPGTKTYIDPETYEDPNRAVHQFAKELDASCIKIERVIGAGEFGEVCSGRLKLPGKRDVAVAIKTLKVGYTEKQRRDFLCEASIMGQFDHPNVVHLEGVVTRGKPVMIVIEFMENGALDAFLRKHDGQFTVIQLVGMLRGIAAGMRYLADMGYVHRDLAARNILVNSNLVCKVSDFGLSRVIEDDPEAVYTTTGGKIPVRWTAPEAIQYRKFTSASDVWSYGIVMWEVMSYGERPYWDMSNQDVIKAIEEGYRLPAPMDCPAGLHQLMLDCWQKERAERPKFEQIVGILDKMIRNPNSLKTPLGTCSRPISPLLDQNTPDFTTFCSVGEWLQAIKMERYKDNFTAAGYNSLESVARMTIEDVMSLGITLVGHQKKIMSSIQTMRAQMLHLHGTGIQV
# Sequence of Aurora kinase B (Q96GD4 whole entry): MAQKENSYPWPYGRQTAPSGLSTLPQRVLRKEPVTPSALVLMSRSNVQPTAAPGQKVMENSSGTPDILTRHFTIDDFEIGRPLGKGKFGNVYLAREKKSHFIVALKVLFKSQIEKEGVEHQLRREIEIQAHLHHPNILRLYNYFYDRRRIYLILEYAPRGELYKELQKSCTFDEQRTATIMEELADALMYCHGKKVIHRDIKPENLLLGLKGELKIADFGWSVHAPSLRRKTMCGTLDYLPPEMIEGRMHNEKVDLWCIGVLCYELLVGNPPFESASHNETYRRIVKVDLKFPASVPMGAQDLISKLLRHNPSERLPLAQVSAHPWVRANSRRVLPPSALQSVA
compound,measurement,setting,value
CN(C)CCOc1ccc(-c2nc(-c3ccncc3)c(-c3ccc4c(c3)CC/C4=N\O)[nH]2)cc1,% of control,Aurora kinase B,100%
Nc1cnc(N2CCc3cc(S(=O)(=O)Nc4c(F)cc(Cl)cc4F)cc(N4CCCC4=O)c32)nc1 [TP-020n],% of control,[1],83%
same,% of control,[2],100%
CC(=O)Nc1cccc(-n2c(=O)n(C3CC3)c(=O)c3c(Nc4ccc(I)cc4F)n(C)c(=O)c(C)c32)c1,% of control,[3],120%
N#Cc1cccc(-c2c[nH]c3ncnc(N4CCOCC4)c23)c1,% of inhibition,[4],-1%
Cc1cc([C@@H](C)Nc2ccccc2C(=O)O)c2nc(N3CCOCC3)cc(=O)n2c1 [AZD-6482],% of control,[5],100%
CC[C@@H]1[C@H](F)C(=O)N[C@@H]1COc1nccc2cc(C(N)=O)c(OC)cc12 [ZIMLOVISERTIB],% of inhibition,[6]; at 0.01 µM,4.8%
same,% of inhibition,[6]; at 0.04 µM,4.1%
same,% of inhibition,[6]; at 0.2 µM,6.2%
same,% of inhibition,[6]; at 1 µM,-18.5%
same,% of inhibition,[6]; at 5 µM,8%
same,% of inhibition,[7]; at 0.01 µM,-2.4%
same,% of inhibition,[7]; at 0.04 µM,1.2%
same,% of inhibition,[7]; at 0.2 µM,-29.5%
same,% of inhibition,[7]; at 1 µM,-29%
same,% of inhibition,[7]; at 5 µM,14.7%
Cc1cc(CN)cc(C)c1-c1ncn(C)c1-c1cncn1C,dTM,[8],-1.56 K
same,dTM,[9],-0.9 K
COc1cc(N(C)c2ccnc3ccc(C(F)(F)F)cc23)cc(OC)c1OC,% binding,[10],100%
O=C(NOC[C@H](O)CO)c1ccc(F)c(F)c1Nc1ccc(I)cc1F,% of control,[11],100%
same,% of control,[12],94%
